Measurements taken from US12545892B2, “Application of TGF-B inhibitor in inducing neural stem cells and organoid formation” (IREGENE THERAPEUTICS, CO., LTD., priority 2020, dated 2026).

Tests used:
[1] = test system: MHC associated genes CD4, HLA-A, HLA-C, hla-f, and HLA-DPB1; experiment: Q-PCR detection of MHC genes of induced neural stem cells; assay type: cell-based; details: compared with human pluripotent stem cells; FIG. 6
Source text: The major histocompatibility complex (MHC) genes of neural stem cells induced by LY2157299 was detected by Q-PCR method, and pluripotent stem cells (iPS) were used as control.

HLA-DR = experiment: Flow cytometry detection of HLA-DR antigens of induced neural stem cells; assay type: cell-based, human; details: FIG. 7
Description: The HLA-DR antigens of neural stem cells induced by LY2157299 were detected by flow cytometry. HLA-DR is an MHC class II molecule whose expression is critical for the antigen-presenting function of cells and plays a key role in adoptive immune responses. The induced neural stem cells obtained in Example 2 were digested with EDTA, washed with DPBS, centrifuged to remove the supernatant, and 10^6 Cells were resuspended in 100 μL of diluted primary antibody (CD45 PerCP, Abeam, Cat. No. ab157309; HLA-DR FITC, CST, Cat. No. 54126), incubated on ice for 1 hour in the dark, centrifuged to remove supernatant, and cells were resuspended in 500 μL of antibody dilution buffer (CST) and analyzed on a flow cytometer. Samples incubated without primary antibody were used as controls. The results are shown in FIG. 7, FIG. 7a is a negative control, FIG. 7b is the HLA-DR detection result of the neural stem cells obtained by LY2157299 induction.

[2] = test system: Human pluripotent stem cells; experiment: Chemical induction of neural stem cells from pluripotent stem cells (neural rosette formation, cell morphology); assay type: cell-based
Source text: Human pluripotent stem cells include embryonic pluripotent stem cells, such as the H9 cell line and human induced pluripotent stem cells. Wherein, the human induced pluripotent stem cells used in the present invention are obtained from the reprogramming of CD34^+ cells, which refers to “reprogramming culture medium and reprogramming induced pluripotent stem cell culture method” (the method in the patent ZL201910050800.7).
Human pluripotent stem cells are used to coat T25 cell culture flasks with Matrigel ([…] Technologies), and then placed in a 37° C. incubator for more than one hour after plating. Follow 1×10^6 Cells were seeded in T25 flasks for expansion and passage.
For neural induction, use 50 μg/mL poly-lysine (SIGMA, Cat. No.: P6407) to coat a 6-well culture plate, and incubate at 37° C. for more than 3 hours after plating; then use 5 μg/mL Laminin (SIGMA ALDRICH, Cat. No.: 12020) for further coat, and then place in a 37° C. incubator to incubate for more than 3 hours. When pluripotent stem cells reached 70% coverage, they were digested with EDTA at 37° C. for 5 min, and DMEM was used to stop cell digestion. Cells are washed and centrifuged at 2×10^5 the proportions of each flask and are re-seeded in T25 plates. Neural induction is performed using the medium of the present invention in combination with the neural inducing compound, and the medium is changed every day until the neural stem cell rosette is formed. […] Therefore, the single-molecule inducing method provided by this method can induce pluripotent stem cells to form neural rosette structures more efficiently and uniformly.
(§1) From the above results, it is known that the differentiation is not complete under the low concentration condition, and many different types of cells can be seen. However, neural stem cells obtained in high concentration condition are easily differentiated and cell stress appears.

[3] = test system: human induced pluripotent stem cells; experiment: Brain organoid culture from induced pluripotent stem cells (formation, diameter); assay type: cell-based; details: 12.5 μM in basal medium to day 10, culture to day 120
Description: Organoid culture was performed with human induced pluripotent stem cells. Organoid inducing medium was formulated as follows: NouvNeu basal medium supplemented with 12.5 μM LY2157299. Induced pluripotent stem cells were digested to single cells by Accutase, seeded in U-bottom-ultra-low attachment 96-well plates at a ratio of 9000 cells/[…] of brain organoid inducing medium per well. 10 μM ROCK inhibitor Y-27632 (Selleck, S1049) was added, and the cells were placed in a 37° C., 5% carbon dioxide cell incubator for 24 hours (Panasonic, model: MCO-18AC). Y-27632-free fresh organoid inducing medium was changed the following day until day 10. Day 10 the organoids were transferred to ultra-low-attachment 6-well plates and the medium was changed to NouvNeu001 basal medium supplemented with 2% B27 cell culture additive. The culture was conducted at 37° C. in a 5% CO2 cell culture incubator on a horizontal rotator at 80 rpm until day 120.
The control experiment was carried out according to the published method (Clair B et. al, Nat Methods. 2019, November; 16 (11): 1169-1175). N2B27 was used as the basic medium for organ like culture. […]
Organoids were photographed by Leica Dmi8. The brain organoids were photographed and their diameters were measured. […]

[4] = test system: Human pluripotent stem cells; experiment: Cyquant assay of cell viability during neural induction; assay type: cell-based; details: samples on days 1, 5, 10, 15 and 20; control LSB method; FIG. 1c
Description: (§2) The Cyquant assay was used to perform the quantitative detection of cell viability, thus investigating the effect of LY2157299 on the physiological state of the cells during long-term culture of the cells; Among them, the LSB method was used as the control group. 96-well light-tight cell culture plates were coated; after the coating was complete, cells were seeded separately at 5×10^4 cell number per well and three sets of parallel replicates were set (the average of three sets was calculated as data) to repeat the procedure of example 2.1. Wherein, the culture procedures described previously were incubated at 37° C. with 5% CO2. Samples were taken on days 1, 5, 10, 15 and 20 for cell viability assay using CyQuant Kit (Invitrogen, cat. No: X12223). The aforementioned assay was operated according to the instructions with a Spectramax i3 Multi-Mode Microplate Reader (VWR, model number: ID3-STD) for data reading.

[5] = test system: neural stem cells obtained by the LY inducing method; experiment: Directed differentiation of induced neural stem cells into neurons (immunofluorescence); assay type: cell-based, human
Description: The neural stem cells obtained by the LY inducing method in Example 2 were subjected to directed differentiation in NouvNeu001 basal medium. For neuronal differentiation, use 50 μg/mL polylysine (SIGMA ALDRICH, Cat. No.: P6407) to coat a 6-well culture plate, and place the plate in a 37° C. incubator and incubate for more than 3 hours until cells are seeded.
The neural stem cells obtained in example 2 were seeded at a density of 1×10^5 the ratio per flask was inoculated in T25 flasks, and 3 μM CHIR99021 (Selleck, Cat. No.: S2924), 10 μM SU5402 (Tocris, Cat. No.: 3300/1), 10 μM DAPT (Selleck, Cat. No.: S2215) were added to NouvNeu001 basal medium. Fresh medium was replaced every 3 days until day 21. The above cultures were incubated at 37° C. with 5% CO2.
The neural stem cells obtained in example 2 were seeded at a density of 1×10^5 the ratio per flask was inoculated in T25 flasks, and 1 μM Purmorphamine (Sellek, Cat. No.: S3042) and 1 ng/mL TGF-β3 (Novoprotein, Cat. No.: CJ44) were added to NouvNeu001 basal medium to culture neural stem cells. Fresh medium was replaced every 3 days until day 30. The above cultures were incubated at 37° C. with 5% CO2.
The neural stem cells obtained in example 2 were seeded at a density of 1×10^5 the ratio per flask was inoculated in T25 flasks, and 0.5 μM retinyl acetate (SIGMA ALDRICH, Cat. No.: R7782) was added to NouvNeu001 basal medium. Fresh medium was replaced every 3 days until day 24. The above cultures were incubated at 37° C. with 5% CO2.
After induction and differentiation, the cells were harvested and identified by immunofluorescence staining: cells were fixed with 4% paraformaldehyde at room temperature for 40 minutes, washed twice with DPBS buffer; then permeabilized with 0.1% Triton X-100 for 5 minutes, and buffered with DPBS The cells were then washed twice with DPBS buffer containing 10% horse serum and 0.1% Triton X-100 at 4° C. overnight; the cells were washed with DPBS buffer and then washed with 2% horse serum and 0.1% Triton X-100. […]

[6] = test system: Sox2, Pax6, Nestin, CASP3; experiment: Q-PCR of marker genes during induction from pluripotent stem cells to neural stem cells; assay type: cell-based, human; details: different concentrations
Description: Transcriptional changes of different marker genes during induction from pluripotent stem cells to neural stem cells were detected by using Q-PCR. The induced pluripotent stem cells used in this example are neural stem cells derived by LY inducing method and LSB inducing method, respectively. Neural stem cells were prepared as described previously using Rneasy Mini or Micro Kit (QIAGEN) for total RNA extraction, in which […] RNA was used to synthesize cDNA with superscript III First-Strand Synthesis System (Invitrogen).
All the above data were analyzed with the delta-Ct method. Each set of trials was tested using three sets of replicates, and variance statistics were performed.
as §1

[7] = test system: Human pluripotent stem cells; experiment: CyQuant assay of medium components (cell viability in long-term culture); assay type: cell-based; details: different concentrations, FIG. 2b-2c
Description: as §2

[8] = Freezing point osmometer, osmolality of the culture system; assay type: physicochemical; details: sodium chloride concentration 1 μg/mL; FIG. 2a
Source text: A fully automated freezing point osmometer (FM-8P, Shanghai Yida Instruments Co., Ltd.) was used to detect the effects of different concentrations of sodium chloride on the osmolality of the culture system, and the specific operations were enrolled in the product instructions (FM-8P, Shanghai Yida Instruments Co., Ltd.). The test results are detailed in FIG. 2a. The results illustrate a linear increase with the concentration of sodium chloride and the osmotic pressure of the culture system. However, when the concentration reached 1 μg/mL, the osmolality of the culture system already exceeded the cell culture limit of 320 mOsm/kg.

Compound: Cc1cccc(-c2nn3c(c2-c2ccnc4ccc(C(N)=O)cc24)CCC3)n1 [LY2157299, 4-(2-(6-methylpyridin-2-yl)-5,6-dihydro-4h-pyrrolo[1,2-b]pyrazol-3-yl) quinoline-6-carboxamide]
- expression of MHC associated genes in induced neural stem cells (Q-PCR) [1]: expressed at extremely low levels
- HLA-DR antigen expression of induced neural stem cells (flow cytometry) (HLA-DR): do not express HLA-DR
- cell population obtained by chemical induction ([2]; 12.5 μM in NouvNeu001 basal medium, FIG. 4d): resulted in a uniform cell population
- cell population obtained by chemical induction ([2]; 25 μM in NouvNeu001 basal medium, FIG. 4e): a mixed population of neural cells was obtained
- cell stress during chemical induction ([2]; 25 μM, FIG. 4e): cells showed signs of stress with intracellular vacuoles
- cell population obtained by chemical induction ([2]; in NouvNeu001 basal medium, FIG. 4c): a mixed population of cells including neural cells was obtained
- generation of cerebral organoids [3]: can induce the generation of cerebral organoids
- number of neural cells (cell viability, CyQuant) [4]: induced more number of neural cells compared with LSB method
- nociceptor neuron differentiation of induced neural stem cells, marker expression ([5]; CHIR99021, SU5402, DAPT until day 21, FIG. 5a-5c): express the nociceptor neuron specific marker SCNI11A
- dopaminergic neuron differentiation of induced neural stem cells, marker expression ([5]; Purmorphamine, TGF-β3 until day 30, FIG. 5d-5f): can express mature dopaminergic neuron specific marker Pitx3
- photoreceptor neuron differentiation of induced neural stem cells, marker expression ([5]; retinyl acetate until day 24, FIG. 5g-5i): can express the photoreceptor neuron specific marker OPSIN
- regulation of Pax6 expression by concentration (Q-PCR) ([6]; FIG. 4f): positively correlated with Pax6 expression
- regulation of apoptosis gene CASP3 by concentration (Q-PCR) ([6]; FIG. 4g): positively correlated with apoptosis

Compound: recombinant insulin: component of the basal medium, screened at different concentrations
- effect of concentration on cell proliferation (CyQuant) [7]: positively correlated with the rate of cell proliferation

Compound: [Cl-].[Na+] [sodium chloride]
- osmolality of the culture system [8]: > 320 mOsm/kg
